The CombiSolv-Exp solvation set (Vermeire and Green 2021)

Assay: solvent given as SMILES

Oc1ccc(Cl)cc1
Conditions | solvation free energy, 298 K [kJ/mol]
in CC(C)CC(C)(C)C | -27.6
in CCCCCC | -28.9
in CCCCCCC | -28.8
in CCCCCCCC | -28.8
in CCCCCCCCCC | -28.8
in Cc1ccc(C)cc1 | -34.7
in Cc1cccc(C)c1 | -35.1
in Cc1ccccc1C | -35.5
in O | -29.5

Cc1cccc2ccccc12
Conditions | solvation free energy, 298 K [kJ/mol]
in CCO | -31.3
in O | -9.71
in OCCOCCO | -30.7

Cl
Conditions | solvation free energy, 298 K [kJ/mol]
in C=CCCCCCCCCCCCCCC | -3.43
in ClC(Cl)(Cl)Cl | -3.6

Clc1c(Cl)c(Cl)c(-c2c(Cl)c(Cl)c(Cl)c(Cl)c2Cl)c(Cl)c1Cl
Conditions | solvation free energy, 298 K [kJ/mol]
in CCCCCCCCC=CCCCCCCCC(=O)OCC(COC(=O)CCCCCCCC=CCCCCCCCC)OC(=O)CCCCCCCC=CCCCCCCCC | -61.1
in O | -12.8

C=CC=CC
Conditions | solvation free energy, 298 K [kJ/mol]
in N#Cc1ccccc1 | -13.6

Clc1ccc2c(c1)Oc1cc(Cl)c(Cl)c(Cl)c1O2
Conditions | solvation free energy, 298 K [kJ/mol]
in O | -16.1

O=S(=O)(c1ccccc1)c1ccccc1
Conditions | solvation free energy, 298 K [kJ/mol]
in C1CCOC1 | -62.3
in C1COCCO1 | -62.9
in CC(C)(C)O | -55.3
in CC(C)CC(C)(C)C | -48.5
in CC(C)CCO | -55
in CC(C)CO | -55.1
in CC(C)O | -55.3
in CC(C)OC(C)C | -54.6
in CCC(C)CO | -55.1
in CCC(C)O | -55.9
in CCCC(C)O | -55
in CCCCCC | -49.2
in CCCCCCC | -49.3
in CCCCCCCC | -49.3
in CCCCCCCCCC | -49.4
in CCCCCCCCCCO | -53.8
in CCCCCCCO | -54.7
in CCCCCCO | -55.1
in CCCCCO | -55.5
in CCCCCl | -59.1
in CCCCO | -55.9
in CCCCOC(C)=O | -59.6
in CCCCOCCCC | -53.8
in CCCO | -56.4
in CCO | -57
in CCOC(C)=O | -60.9
in CCOCC | -57.2
in CO | -57.7
in COC(C)(C)C | -56.6
in COC(C)=O | -61.6
in O | -42.2

COc1c(O)c(OC)c(Cl)c(C=O)c1Cl
Conditions | solvation free energy, 298 K [kJ/mol]
in O | -36.3

Clc1cc(-c2c(Cl)cc(Cl)c(Cl)c2Cl)c(Cl)c(Cl)c1Cl
Conditions | solvation free energy, 298 K [kJ/mol]
in O | -19.3

CCO
Conditions | solvation free energy, 298 K [kJ/mol]
in Brc1ccccc1 | -13.1
in C1CCCCC1 | -9.71
in C1CCOC1 | -18.9
in C1COCCO1 | -18.2
in C=CCCCCCCC | -9.79
in CC1COC(=O)O1 | -17.6
in CC#N | -18.3
in CC(=O)N(C)C | -21.9
in CC(=O)O | -21.8
in CC(=O)c1ccccc1 | -16.9
in CC(C)(C)O | -21.1
in CC(C)=O | -19
in CC(C)CC(C)(C)C | -9.87
in CC(C)CCCC(C)CCCC(C)CCCCC(C)CCCC(C)CCCC(C)C | -8.41
in CC(C)CCO | -20.1
in CC(C)CO | -20
in CC(C)O | -20.7
in CC(C)OC(C)C | -15.8
in CC(Cl)Cl | -14.9
in CCC(C)=O | -18.2
in CCCC#N | -17.2
in CCCCC(CC)COC(=O)CCCCC(=O)OCC(CC)CCCC | -14.1
in CCCCCCC | -9.2
in CCCCCCCC | -8.95
in CCCCCCCCC=CCCCCCCCC(=O)OCC(COC(=O)CCCCCCCC=CCCCCCCCC)OC(=O)CCCCCCCC=CCCCCCCCC | -13.5
in CCCCCCCCCC | -9.41
in CCCCCCCCCCCCCCCC | -8.24
in CCCCCCCCCCO | -17.2
in CCCCCCCCCOC(=O)c1ccccc1C(=O)OCCCCCCCCC | -13.6
in CCCCCCCCO | -18.5
in CCCCCO | -19.5
in CCCCCl | -12.8
in CCCCN(C=O)CCCC | -19
in CCCCO | -20.5
in CCCCOCCCC | -13.9
in CCCO | -20.5
in CCCOCCC | -14.4
in CCN(CC)C(C)=O | -21.2
in CCN(CC)CC | -16.8
in CCNC(C)=O | -20.7
in CCNC=O | -20.5
in CCOC(=O)c1ccccc1C(=O)OCC | -14.8
in CCOC(C)=O | -17.3
in CCOCC | -18.5
in CCOCCO | -19.1
in CCOCCOCCOCC | -17.6
in CCOP(=O)(OCC)OCC | -19.9
in CCOc1ccccc1 | -14.1
in CN1CCCC1=O | -21.3
in CN1CCCCC1=O | -21.5
in CN1CCN(C)C1=O | -20.6
in CN(C)C=O | -21.3
in CN(C)P(=O)(N(C)C)N(C)C | -25.6
in CNC(C)=O | -20.8
in CNC=O | -20.8
in CO | -22.1
in COC(C)(C)C | -16.5
in COC(C)=O | -17.2
in COCCO | -20
in COP(=O)(OC)OC | -20.8
in COc1ccccc1 | -14.7
in CS(C)=O | -21.9
in Cc1ccc(C)cc1 | -13.1
in Cc1cccc(C)c1 | -12.6
in Cc1cccc(C)n1 | -20.4
in Cc1cccc(O)c1 | -23.1
in Cc1ccccc1 | -13.5
in Cc1ccccn1 | -20.8
in ClC(Cl)(Cl)Cl | -12.4
in ClC(Cl)Cl | -16.6
in ClCCl | -15.7
in Clc1ccccc1 | -13.3
in FC(F)(F)C(F)(F)C(F)(F)C(F)(F)C(F)(F)C(F)(F)F | -6.49
in Fc1c(F)c(F)c(F)c(F)c1F | -11.7
in Fc1ccccc1 | -13.9
in ICI | -11.8
in Ic1ccccc1 | -12.7
in NC=O | -20.3
in Nc1ccccc1 | -18.3
in O | -21
in O=C1CCCCC1 | -18.2
in O=C1CCCO1 | -18.6
in O=CN1CCOCC1 | -19
in OCC(O)CO | -18.1
in OCCO | -19.7
in OCCOCCO | -19.1
in OCCOCCOCCO | -17.4
in OCc1ccccc1 | -20
in S=C=S | -11.3
in [2H]O[2H] | -21.3
in c1ccc2ncccc2c1 | -19
in c1ccc(COCc2ccccc2)cc1 | -14.1
in c1ccccc1 | -13.7
in c1ccncc1 | -21.1

CCCCCCCCCCCCCCCCCCCC
Conditions | solvation free energy, 298 K [kJ/mol]
in CC(=O)N(C)C | -56.9
in CC(C)(C)O | -51.9
in CCC(C)=O | -52.8
in CCCCCCCCC=CCCCCCCCC(=O)OCC(COC(=O)CCCCCCCC=CCCCCCCCC)OC(=O)CCCCCCCC=CCCCCCCCC | -52.3
in CCCCOC(C)=O | -54.1
in CCO | -47.6
in CN(C)C=O | -56.9
in COC(C)(C)C | -56.5
in O | 18.9

Oc1ccc2ccccc2c1
Conditions | solvation free energy, 298 K [kJ/mol]
in Brc1ccccc1 | -43.7
in CC(C)CC(C)(C)C | -34.4
in CCCCCC | -35.4
in CCCCCCC | -35.7
in CCCCCCCC | -36.1
in CCCCCCCCCC | -36
in ClC(Cl)(Cl)Cl | -39.5
in ClC(Cl)Cl | -43.8
in Clc1ccccc1 | -43.3
in O | -34

CCCCCCc1ccccc1
Conditions | solvation free energy, 298 K [kJ/mol]
in CO | -29.8

CCC(C)(C)OC
Conditions | solvation free energy, 298 K [kJ/mol]
in CC(=O)N(C)C | -16.4
in CC(C)(C)O | -17.7
in CC(C)CC(C)(C)C | -17.7
in CCCCCC | -18.7
in CCCCCCC | -17.7
in CCCCCCCCCC | -17.4
in CCCCCCCCO | -17
in CCCCN(C=O)CCCC | -17.2
in CCN1CCCC1=O | -16.1
in CCN(CC)C(C)=O | -16.9
in CCNC(C)=O | -16.2
in CCNC=O | -15.9
in CN1CCCCC1=O | -16.2
in CN(C)C=O | -15.8
in CNC(C)=O | -15.7
in CNC=O | -15.1
in CO | -17.8
in O | -7.41
